Experiments:
[1] = test system: MTAP− and MTAP+ cell lines (isogenic pairs); assay: Cell viability IC50 measurement (Cell Titer-Glo); format: cell-based
Description: Applicants tested the ability of these inhibitors to selectively impair viability of parental MTAP− cell lines compared to isogenic lines expressing MTAP, as well as parental MTAP+ cell lines compared to isogenic CRISPR-mediated MTAP knockout lines (FIG. 17).
Cell plating densities were determined by evaluating the number of cells required to achieve 70% confluency after 12 days in culture. Cells were seeded in 100 μL of media in 96-well plates (excluding wells in the first or last row or column) using the following densities in cells per well: LU99 at 360, H647 at 100, SF-172 at 35, SU8686 at 250, MIAPACA2 at 135, H838 at 73, H2126 at 1042, HCC44 at 62, KP2 at 292, H661 at 166, and H2030 at 250. Isogenic cell line pairs were seeded at the same densities for all experiments.
Drug was administered using the HP D300 digital dispenser (Hewlett-Packard). […] Media and drug were changed every 4 days.
Isogenic cell line pairs were plated and cultured in parallel for the same time period. Luminescence was measured according to the manufacturer's instructions using the EnVision Multilabel Reader (Perkin Elmer). Luminescence data from each well was normalized to luminescence from wells containing untreated cells on that same plate. IC50 was calculated by non-linear regression using the ‘log(inhibitor) vs. response (three parameters) analysis in GraphPad Prism 6.

PRMT5 = PRMT5 (Homo sapiens, UniProt O14744); settings: cited from earlier work
Sequence of PRMT5 (O14744 whole entry): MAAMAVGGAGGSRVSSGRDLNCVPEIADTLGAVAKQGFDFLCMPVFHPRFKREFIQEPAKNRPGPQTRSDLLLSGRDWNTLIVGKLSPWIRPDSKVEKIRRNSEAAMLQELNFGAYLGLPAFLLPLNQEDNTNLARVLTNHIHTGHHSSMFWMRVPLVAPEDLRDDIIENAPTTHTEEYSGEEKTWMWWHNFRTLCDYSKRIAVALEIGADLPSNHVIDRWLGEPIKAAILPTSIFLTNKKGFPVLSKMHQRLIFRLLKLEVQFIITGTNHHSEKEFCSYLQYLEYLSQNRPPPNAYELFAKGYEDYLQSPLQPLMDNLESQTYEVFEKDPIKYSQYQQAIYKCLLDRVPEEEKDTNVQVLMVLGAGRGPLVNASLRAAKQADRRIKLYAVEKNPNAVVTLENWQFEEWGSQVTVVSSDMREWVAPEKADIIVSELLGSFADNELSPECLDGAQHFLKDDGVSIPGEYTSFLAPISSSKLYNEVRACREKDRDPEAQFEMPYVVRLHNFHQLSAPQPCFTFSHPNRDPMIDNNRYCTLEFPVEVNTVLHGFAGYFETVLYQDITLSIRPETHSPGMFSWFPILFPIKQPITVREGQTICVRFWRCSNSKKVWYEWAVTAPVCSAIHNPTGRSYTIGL
Sequence of PRMT5 (Q9BQA1 whole entry partner): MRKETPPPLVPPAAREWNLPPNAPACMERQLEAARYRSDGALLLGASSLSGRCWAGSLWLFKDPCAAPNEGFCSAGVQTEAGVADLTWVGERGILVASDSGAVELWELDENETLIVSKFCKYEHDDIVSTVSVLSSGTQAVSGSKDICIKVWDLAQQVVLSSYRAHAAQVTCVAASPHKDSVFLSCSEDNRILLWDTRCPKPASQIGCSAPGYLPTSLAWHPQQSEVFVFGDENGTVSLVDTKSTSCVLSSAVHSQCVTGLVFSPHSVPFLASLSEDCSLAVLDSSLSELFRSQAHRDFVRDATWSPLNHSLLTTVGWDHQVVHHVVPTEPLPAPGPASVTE

O=C(NC[C@H](O)CN1CCc2ccccc2C1)c1cc(NC2COC2)ncn1 [EPZ015666]
differential sensitivity between isogenic MTAP− and MTAP+ cells ([1]; SF-172 isogenic pair): absent altogether | difference in mean IC50 values between MTAP+ and MTAP− cell lines ([1]; parental MTAP+ vs MTAP− cell lines): did not observe significant differences | mode of inhibition of PRMT5 (PRMT5): peptide-competitive and SAM-cooperative

From patent US20180271891A1, “SELECTIVE TREATMENT OF PRMT5 DEPENDENT CANCER” (THE BROAD INSTITUTE INC., priority 2015, published 2018)
